# Experimental data taken from patent US20250186470A1, “Compositions and Methods Using Lactulose for Treating Disease” (THE UNIVERSITY OF CHICAGO, priority 2023, published 2025).
# Columns and labels:
# [1] = test system: Proteobacteria (Enterobacteriaceae); assay: Fecal shotgun metagenomics of hospitalized liver disease patients stratified by lactulose exposure: Enterobacteriaceae/Proteobacteria abundance; assay type: in vivo, human; settings: fecal samples from lactulose-treated patients
# [2] = test system: B. longum; assay: B. longum growth, pH and SCFA in BHIS with 50 mM lactulose or sucrose; assay type: cell-based, Bifidobacterium longum
# Text: FIGS. 4A-4D: Lactulose-mediated Bifidobacteria expansion is associated with exclusion of antibiotic-resistant Enterococcus species. (A) Relative abundance of potentially pathogenic taxa Enterococcus and Proteobacteria were plotted based on lactulose exposure (no lactulose, left; lactulose, right) and relative abundance of Bifidobacteria (<10%, blue; ≥10%, red). Each point represents a single sample with the following sample sizes: total n=262; no lactulose, <10%, n=79; no lactulose, ≥10%, n=24; lactulose, <10%, n=87; lactulose, ≥10%, n=72. Median and interquartile range are indicated by the horizontal line and box, respectively. The lower vertical line depicts Q1-1.5*IQR and the upper vertical line depicts Q3+1.5*IQR. Statistical comparisons between individual groups were analyzed using a two-tailed Wilcoxon rank sum test. P-values are adjusted for multiple comparisons using the Benjamini-Hochberg procedure and represented as follows: *, p<0.05; **, p<0.01; ***, p<0.001; ****, p<0.0001. (B) A human-derived B. longum species was grown in BHIS media (blue) or BHIS supplemented with 50 mM lactulose (red) or 50 mM sucrose (green), and growth curves (OD600 over time) are shown. […] This graph is representative of three independent experiments, also done in triplicate, all with consistent results. (C) Schematic of experimental design for B. longum (purple bacilli) and VRE (green cocci) co-culture. B. longum and VRE were grown to steady state and diluted to low density (OD600=0.05) prior to inoculation in either BHIS or BHIS supplemented with 50 mM lactulose. Cultures were inoculated with both bacteria simultaneously (top) or B. longum was given either a 24-hour or 48-hour lead time prior to VRE inoculation (bottom). (D) After 24-hours of co-culture, serial dilutions of three replicates were plated for VRE c.f.u. counts. Each replicate is plotted as an individual point, and the median is represented by the horizontal line. […]
# (C and D) Supernatant BA quantified after 24 h of B. longum growth in media containing 10 μg/ml conjugated primary BA ((C) TCA or (D) GCA). n=4 all conditions. […]
compound,measurement,setting,value
"OC[C@H]1O[C@@H](O[C@@H]2[C@@H](CO)OC(O)(CO)[C@H]2O)[C@H](O)[C@@H](O)[C@H]1O (mixture of isomers) [Lactulose, lactulose]","Enterobacteriaceae abundance, mean",[1],7.9%
same,"Enterobacteriaceae abundance, median",[1],0.9%
same,"Enterobacteriaceae abundance, range",[1],0.0-98.8%
same,Acetate in B. longum culture,"[2]; 50 mM lactulose, 24 h",acetate production
same,Media pH after B. longum growth,"[2]; 50 mM lactulose, 24 h",media acidification
same,B. longum culture growth (OD600),[2]; BHIS supplemented with 50 mM sugar,augmented
